Data as given in PubChem BioAssay (NCI).
“And” between values parts separate entries of the source, which are not always exact repeats. Equal values may be shown once.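 Cultured in 96-well plates, cells were exposed to test compound for 48 hours across five concentrations. Abbreviation: GI50, concentration required for 50% inhibition of growth. TGI marks complete inhibition of growth.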

Tests used:
Assay in all cases: growth of human tumour cells (NCI), 48 h
MALME-3M melanoma = tested on: MALME-3M melanoma
A498 renal = tested on: A498 renal
SN12C renal = tested on: SN12C renal
MOLT-4 leukemia = tested on: MOLT-4 leukemia
MCF7 breast = tested on: MCF7 breast
EKVX NSCLC = tested on: EKVX NSCLC
UACC-257 melanoma = tested on: UACC-257 melanoma
LOX IMVI melanoma = tested on: LOX IMVI melanoma
BT-549 breast = tested on: BT-549 breast
A549 NSCLC = tested on: A549 NSCLC
HT29 colon = tested on: HT29 colon
NCI-H226 lung = tested on: NCI-H226 lung
MDA-MB-435 = tested on: MDA-MB-435
HCT-15 colon = tested on: HCT-15 colon
SK-MEL-2 melanoma = tested on: SK-MEL-2 melanoma

Structure (SMILES) | TGI (MALME-3M melanoma) | TGI (A498 renal) [µM] | TGI (SN12C renal) [µM] | TGI (MOLT-4 leukemia) | TGI (MCF7 breast) | TGI (EKVX NSCLC) [µM] | TGI (UACC-257 melanoma) [µM] | TGI (LOX IMVI melanoma) | TGI (BT-549 breast) | TGI (A549 NSCLC) [µM] | TGI (HT29 colon) | TGI (NCI-H226 lung) | TGI (MDA-MB-435) | TGI (HCT-15 colon) [µM] | GI50 (MALME-3M melanoma) | GI50 (SN12C renal) | GI50 (MOLT-4 leukemia) | GI50 (NCI-H226 lung) | GI50 (HCT-15 colon) | TGI (SK-MEL-2 melanoma) [µM]
CN(C)Nc1cc(=O)[nH]c(=O)[nH]1 | > 100 µM | > 100 | > 100 | > 100 µM | > 100 µM | > 100 | > 100 | > 100 µM | > 100 µM | > 100 | > 100 µM | > 100 µM | > 100 µM | > 100 | – | – | – | – | – | –
N#Cc1c(-c2ccccc2)cc(-c2ccccc2)n(C2OC(CO)C(O)C(O)C2O)c1=S (stereo unspecified) | 62.5 µM and > 100 µM | 52.5 | > 100 | 51.7 µM and 85.8 µM | 78 µM and > 100 µM | > 100 | – | 37.7 µM and 92.3 µM | 80.6 µM and > 100 µM | > 100 | 56 µM and > 100 µM | 49.1 µM and > 100 µM | 44 µM and 67.9 µM | > 100 | 24.9 µM and > 100 µM | 36.8 µM and 84.1 µM | 11.3 µM and 23.5 µM | 22.3 µM and 69.8 µM | 31 µM and 80.8 µM | –
Cc1ccc2c(c1)[nH]c(=S)n2/C=C1\C(=O)Oc2ccccc2C1=O | > 100 µM | > 100 | > 100 | > 100 µM | > 100 µM | – | > 100 | > 100 µM | > 100 µM | > 100 | > 100 µM | > 100 µM | > 100 µM | > 100 | – | – | – | – | – | > 100
CC(=O)NC1C(OCc2ccccc2)OC(CO)C(O)C1OC(C)C(=O)NC(C(=O)N[C@@H](CCC(=O)NCCNCCNc1c2ccccc2nc2cccc([N+](=O)[O-])c12)C(N)=O)C(C)C (stereo partly specified) | > 100 µM | > 100 | > 100 | 53.2 µM | 41.5 µM | – | – | > 100 µM | > 100 µM | 97 | – | > 100 µM | 29.3 µM | > 100 | – | – | – | – | – | 46.7
C1=NCCN2CCN(CCN=Cc3ccc(cc3)OCc3cccc(n3)COc3ccc1cc3)CC2 | > 50 µM | > 50 | > 50 | > 50 µM | > 50 µM | > 50 | > 50 | – | > 50 µM | > 50 | > 50 µM | > 50 µM | > 50 µM | > 50 | – | – | – | – | – | > 50
COC(=O)/C=C(/C)n1nc2ccccc2n1 | > 100 µM | > 100 | > 100 | > 100 µM | > 100 µM | > 100 | > 100 | – | > 100 µM | > 100 | > 100 µM | > 100 µM | > 100 µM | > 100 | – | – | – | – | – | > 100
